Laboratory results taken from patent publication US20200281937A1, “USL-311 FOR USE IN THE TREATMENT OF CANCER” (Proximagen, LLC, priority 2017, published 2020).

Tests used:
Type in all cases: in vivo
[1] = system: EMT-6 (breast cancer); test: Syngeneic subcutaneous tumour growth inhibition, EMT-6; conditions: EMT6 s.c. tumour in mice, 50 mg/kg p.o. 5 days out of 7, vs vehicle group
Procedure: (§1) Nine syngeneic cell lines from […] different cancer types (EMT-6 (breast cancer), MBT2 (bladder cancer), CT26 (colorectal cancer), B16F10small, B16BL6 (both melanoma), A20 (lymphoma), LL/2 (lung cancer), Renca (kidney cancer), H22 (liver cancer)) were cultured and when in exponential growth were inoculated in mice subcutaneously with tumour cells in 0.1 mL of PBS for tumour development. After the mean tumour size reached approximately 80-120 mm^3 the mice were treated with 6-{4-[1-(Propan-2-yl)piperidin-4-yl]-1,4-diazepan-1-yl}-N-(pyridin-4-yl)pyridine-2-carboxamide (50 mg/kg p.o. 5 days out of 7). Tumour volumes were measured twice weekly at least in two dimensions using a caliper, and the volume expressed in mm^3 using the formula: V=0.5 a×b^2 where a and b are the long and short diameters of the tumour, respectively. Tumour growth was measured and inhibition of tumour growth reported in comparison to a vehicle treated group. All groups contained 8 mice. If the tumours in a group reached an average volume of 2000 mm^3, the experiment was terminated.

[2] = system: MBT2 (bladder cancer); test: Syngeneic subcutaneous tumour growth inhibition, MBT2; conditions: MBT2 s.c. tumour in mice, 50 mg/kg p.o. 5 days out of 7, vs vehicle group
Procedure: as §1

[3] = system: CT26 (colorectal cancer); test: Syngeneic subcutaneous tumour growth inhibition, CT26; conditions: CT26 s.c. tumour in mice, 50 mg/kg p.o. 5 days out of 7, vs vehicle group
Procedure: as §1

[4] = system: B16F10small (melanoma); test: Syngeneic subcutaneous tumour growth inhibition, B16F10small; conditions: B16F10small s.c. tumour in mice, 50 mg/kg p.o. 5 days out of 7, vs vehicle group
Procedure: as §1

[5] = system: B16BL6 (melanoma); test: Syngeneic subcutaneous tumour growth inhibition, B16BL6; conditions: B16BL6 s.c. tumour in mice, 50 mg/kg p.o. 5 days out of 7, vs vehicle group
Procedure: as §1

[6] = system: A20 (lymphoma); test: Syngeneic subcutaneous tumour growth inhibition, A20; conditions: A20 s.c. tumour in mice, 50 mg/kg p.o. 5 days out of 7, vs vehicle group
Procedure: as §1

[7] = system: LL/2 (lung cancer); test: Syngeneic subcutaneous tumour growth inhibition, LL/2; conditions: LL/2 s.c. tumour in mice, 50 mg/kg p.o. 5 days out of 7, vs vehicle group
Procedure: as §1

[8] = system: Renca (kidney cancer); test: Syngeneic subcutaneous tumour growth inhibition, Renca; conditions: Renca s.c. tumour in mice, 50 mg/kg p.o. 5 days out of 7, vs vehicle group
Procedure: as §1

[9] = system: H22 (liver cancer); test: Syngeneic subcutaneous tumour growth inhibition, H22; conditions: H22 s.c. tumour in mice, 50 mg/kg p.o. 5 days out of 7, vs vehicle group
Procedure: as §1

## CC(C)N1CCC(N2CCCN(c3cccc(C(=O)Nc4ccncc4)n3)CC2)CC1 [6-{4-[1-(Propan-2-yl)piperidin-4-yl]-1,4-diazepan-1-yl}-N-(pyridin-4-yl)pyridine-2-carboxamide]
[1]
  % inhibition of tumour growth relative to control: 79.8%
[2]
  % inhibition of tumour growth relative to control: 29.3%
[3]
  % inhibition of tumour growth relative to control: 32.1%
[4]
  % inhibition of tumour growth relative to control: 0%
[5]
  % inhibition of tumour growth relative to control: 0%
[6]
  % inhibition of tumour growth relative to control: 11.6%
[7]
  % inhibition of tumour growth relative to control: 7.8%
[8]
  % inhibition of tumour growth relative to control: 0%
[9]
  % inhibition of tumour growth relative to control: 20.1%
